ChEMBL document CHEMBL3272258, “Quantitative structure-activity relationships. 1. The modified Free-Wilson approach” (J Med Chem, 1976)

Assays:
[1] = species: Rattus norvegicus; experiment: Antagonist activity at rat adrenergic receptor assessed as inhibition of adrenaline-induced response
[2] = n-octanol-water partition coefficient, log P of the compound; assay type: physicochemical
[3] = system: Trichophyton mentagrophytes; experiment: Antifungal activity against Trichophyton mentagrophytes assessed as growth inhibition measured for 14 days by tube dilution method; assay type: functional
[4] = species: Rattus norvegicus; experiment: Binding affinity to rat thyroid hormone receptor

logP [2] | log(activity) [4] | Compound | log(1/C) [1] | log(1/C) [3]
2.36 |  | OCCCOc1ccc(Cl)cc1 |  | 3.07
2.64 |  | CC(O)COc1c(Cl)cccc1Cl (configuration not stated) |  | 3.04
3.16 |  | Cc1cc(Cl)c(OCC(C)O)c(Cl)c1 (configuration not stated) |  | 3.47
3.72 |  | Cc1cc(Cl)cc(C)c1OCCCO |  | 3.51
2.4 |  | Cc1cc(Cl)c(OCC(O)CO)c(Cl)c1 (configuration not stated) |  | 3.1
 | 2.74 | NC(Cc1cc(I)c(Oc2ccc(O)c(I)c2)c(I)c1)C(=O)O (racemic) |  | 
2.42 |  | Cc1cc(OCC(O)CO)cc(C)c1Cl (configuration not stated) |  | 3.24
2.16 |  | CC(O)COc1ccc(Cl)cc1 (configuration not stated) |  | 2.81
2.75 |  | CC(O)COc1ccc(Cl)cc1Cl (configuration not stated) |  | 3.35
3.18 |  | Cc1cc(OCC(C)O)cc(C)c1Cl (configuration not stated) |  | 3.68
 | 1.64 | NC(Cc1cc(Br)c(Oc2ccc(O)c(Br)c2)c(Br)c1)C(=O)O (racemic) |  | 
 | -0.05 | NC(Cc1cc(I)c(Oc2cc(Cl)c(O)c(Cl)c2)c(I)c1)C(=O)O (racemic) |  | 
 | 0.38 | NC(Cc1cc(I)c(Oc2ccc(O)c(F)c2)c(I)c1)C(=O)O (racemic) |  | 
2.14 |  | Cc1ccccc1OCC(C)O (configuration not stated) |  | 2.46
1.97 |  | Cc1cccc(Cl)c1OCC(O)CO (configuration not stated) |  | 2.33
2.73 |  | Cc1cccc(Cl)c1OCC(C)O (configuration not stated) |  | 2.7
 | -0.29 | NC(Cc1cc(Br)c(Oc2cc(Br)c(O)c(Br)c2)c(Br)c1)C(=O)O (racemic) |  | 
1.91 |  | Cc1cc(OCC(O)CO)ccc1Cl (configuration not stated) |  | 2.9
 | 1 | NC(Cc1cc(I)c(Oc2cc(Br)c(O)c(Br)c2)c(I)c1)C(=O)O (racemic) |  | 
 | 2.11 | NC(Cc1cc(Br)c(Oc2ccc(O)c(I)c2)c(Br)c1)C(=O)O (racemic) |  | 
 | -0.43 | NC(Cc1cc(I)c(Oc2ccc(O)cc2)c(I)c1)C(=O)O (racemic) |  | 
1.99 |  | OCC(O)COc1ccc(Cl)cc1Cl (configuration not stated) |  | 2.61
2.05 |  | CC(O)COc1ccccc1Cl (configuration not stated) |  | 2.84
2.08 |  | Cc1cc(Cl)ccc1OCC(O)CO (configuration not stated) |  | 2.33
2.84 |  | Cc1cc(Cl)ccc1OCC(C)O (configuration not stated) |  | 3.3
3.36 |  | Cc1cc(Cl)c(OCCCO)c(Cl)c1 |  | 3.67
 | -1 | NC(Cc1cc(Cl)c(Oc2cc(I)c(O)c(I)c2)c(Cl)c1)C(=O)O (racemic) |  | 
 | 2 | NC(Cc1cc(I)c(Oc2cc(I)c(O)c(I)c2)c(I)c1)C(=O)O (racemic) |  | 

The remaining lines, values behind:

Compound | logP [2] | log(activity) [4] | log(1/C) [1] | log(1/C) [3]
Cc1ccc(C(Br)CN(C)C)cc1 (configuration not stated) |  |  | 9.3 | 
Cc1cc(OCCCO)cc(C)c1Cl | 3.38 |  |  | 3.93
CN(C)CC(Br)c1ccc(I)cc1 (configuration not stated) |  |  | 9.25 | 
CN(C)CC(Br)c1ccc(F)c(Cl)c1 (configuration not stated) |  |  | 8.19 | 
Cc1ccccc1OCC(O)CO (configuration not stated) [MEPHENESIN] | 1.38 |  |  | 2.26
CN(C)CC(Br)c1cccc(Cl)c1 (configuration not stated) |  |  | 8.16 | 
NC(Cc1cc(I)c(Oc2cc(F)c(O)c(F)c2)c(I)c1)C(=O)O (racemic) |  | 0.26 |  | 
CN(C)CC(Br)c1ccc(Cl)cc1 (configuration not stated) |  |  | 8.68 | 
NC(Cc1cc(Br)c(Oc2cc(I)c(O)c(I)c2)c(Br)c1)C(=O)O (racemic) |  | 1.1 |  | 
CN(C)CC(Br)c1cccc(I)c1 (configuration not stated) |  |  | 8.4 | 
Cc1cccc(C(Br)CN(C)C)c1 (configuration not stated) |  |  | 8.46 | 
CN(C)CC(Br)c1ccc(Br)c(Br)c1 (configuration not stated) |  |  | 9.35 | 
Cc1cc(C(Br)CN(C)C)ccc1F (configuration not stated) |  |  | 8.82 | 
CN(C)CC(Br)c1ccc(F)cc1 (configuration not stated) |  |  | 8.16 | 
CN(C)CC(Br)c1cccc(F)c1 (configuration not stated) |  |  | 7.52 | 
CN(C)CC(Br)c1ccc(Br)cc1 (configuration not stated) |  |  | 8.89 | 
Cc1ccc(C(Br)CN(C)C)cc1Br (configuration not stated) |  |  | 9.52 | 
Cc1ccc(C(Br)CN(C)C)cc1C (configuration not stated) |  |  | 9.3 | 

Compound | logP [2] | log(activity) [4] | log(1/C) [1] | log(1/C) [3]
CN(C)CC(Br)c1ccc(Cl)c(Br)c1 (configuration not stated) |  |  | 8.92 | 
OCC(O)COc1c(Cl)cccc1Cl (configuration not stated) | 1.88 |  |  | 2.37
CN(C)CC(Br)c1ccc(F)c(Br)c1 (configuration not stated) |  |  | 8.57 | 
Cc1ccccc1OCCCO | 2.34 |  |  | 2.79
CN(C)CC(Br)c1ccc(Cl)c(Cl)c1 (configuration not stated) |  |  | 8.89 | 
NC(Cc1cc(I)c(Oc2ccc(O)c(Br)c2)c(I)c1)C(=O)O (racemic) |  | 2.3 |  | 
Cc1cc(Cl)cc(C)c1OCC(C)O (configuration not stated) | 3.52 |  |  | 3.51
CN(C)CC(Br)c1cccc(Br)c1 (configuration not stated) |  |  | 8.3 | 
NC(Cc1cc(I)c(Oc2cc(F)c(O)c(I)c2)c(I)c1)C(=O)O (racemic) |  | 1.45 |  | 
OCC(O)COc1ccccc1Cl (configuration not stated) | 1.29 |  |  | 2.31
Cc1cc(OCC(C)O)ccc1Cl (configuration not stated) | 2.67 |  |  | 3.3
Cc1cc(C(Br)CN(C)C)ccc1Cl (configuration not stated) |  |  | 8.96 | 
CN(C)CC(Br)c1ccc(Br)c(Cl)c1 (configuration not stated) |  |  | 9 | 
CN(C)CC(Br)c1ccccc1 (configuration not stated) |  |  | 7.46 | 
Cc1cc(C(Br)CN(C)C)ccc1Br (configuration not stated) |  |  | 9.22 | 
OCC(O)COc1ccc(Cl)cc1 (configuration not stated) | 1.4 |  |  | 2.31
Cc1cccc(Cl)c1OCCCO | 2.93 |  |  | 2.78
Cc1cc(Cl)cc(C)c1OCC(O)CO (configuration not stated) | 2.76 |  |  | 2.76
